Activity calls are given as the source filed them. The calls are words filed in the database; no cut-off is given here.
Experiments:
[1] = test system: Trypanosoma brucei brucei; assay: Antiparasitic activity against Trypanosoma brucei brucei BF427 assessed as growth inhibition after 48 hrs by Alamar blue assay; format: functional; conditions: BF427, 48 h
[2] = Cytotoxicity against human CRL8155 cells assessed as growth inhibition after 48 hrs by Alamar blue assay; format: cell-based; conditions: crl8155, 48 h
[3] = test system: HepG2; assay: Cytotoxicity against human HepG2 cells assessed as growth inhibition after 48 hrs by Alamar blue assay; format: cell-based; conditions: hepg2, 48 h
[4] = molecular target: Cytochrome P450 3A4 (Homo sapiens, UniProt P08684); assay: Inhibition of human CYP3A4; format: ADME
[5] = test system: Liver; assay: Half life in human liver microsomes at 1.5 uM by LC-MS analysis; format: ADME, microsome
[6] = test system: Liver; assay: Half life in mouse liver microsomes at 1.5 uM by LC-MS analysis; format: ADME, microsome
[7] = Ratio of drug level in brain to plasma in mouse at 5 mg/kg, ip after 1 hr by LC-MS analysis; format: ADME, organism-based
[8] = Cmax in mouse at 50 mg/kg, po by LC-MS analysis; format: ADME, organism-based; set-up: dose 50 mg/kg, route oral; conditions: in vivo
[9] = AUC (0 to 8 hrs) in mouse at 50 mg/kg, po by LC-MS analysis; format: ADME, organism-based; set-up: dose 50 mg/kg, time < 8 hr, route oral; conditions: in vivo
[10] = test system: Trypanosoma brucei rhodesiense; assay: Antiparasitic activity against Trypanosoma brucei rhodesiense STIB900 infected in Swiss-Webster mouse assessed as cure rate at 50 mg/kg, bid administered via oral gavage from day 2 to 5 post infection measured after 60 days by microscopic method relative to control; format: functional
[11] = test system: Trypanosoma brucei brucei; assay: Antiparasitic activity against Trypanosoma brucei brucei TREU667 infected in mouse assessed as decrease in parasitemia at 50 mg/kg, bid administered via oral gavage on day 21 to 34 post infection measured on day 34 by microscopic method; format: functional, organism-based
[12] = test system: Trypanosoma brucei brucei; assay: Antiparasitic activity against Trypanosoma brucei brucei TREU667 infected in mouse assessed as decrease in parasitemia at 50 mg/kg, bid administered via oral gavage on day 21 to 34 post infection measured on day 35 by microscopic method; format: functional, organism-based
[13] = test system: Trypanosoma brucei brucei; assay: Antiparasitic activity against Trypanosoma brucei brucei TREU667 infected in mouse assessed as decrease in parasitemia at 50 mg/kg, bid administered via oral gavage on day 21 to 34 post infection measured on day 36 by microscopic method; format: functional, organism-based
[14] = test system: Trypanosoma brucei brucei; assay: Antiparasitic activity against Trypanosoma brucei brucei TREU667 infected in mouse assessed as decrease in parasitemia at 50 mg/kg, bid administered via oral gavage on day 21 to 34 post infection measured on day 46 to 49 by microscopic method; format: functional, organism-based
[15] = test system: L6; assay: Cytotoxicity against rat L6 cells assessed as growth inhibition after 48 hrs by Alamar blue assay; format: cell-based; conditions: l6, 48 h
[16] = test system: Trypanosoma brucei brucei; assay: Antiparasitic activity against Trypanosoma brucei brucei TREU667 infected in mouse assessed as decrease in parasitemia at 50 mg/kg, bid administered via oral gavage on day 21 to 34 post infection measured on day 41 to 42 by microscopic method; format: functional, organism-based
[17] = test system: Trypanosoma brucei brucei; assay: Antiparasitic activity against Trypanosoma brucei brucei TREU667 infected in mouse assessed as decrease in parasitemia at 50 mg/kg, bid administered via oral gavage on day 21 to 34 post infection measured on day 40 by microscopic method; format: functional, organism-based
[18] = test system: Trypanosoma brucei brucei; assay: Antiparasitic activity against Trypanosoma brucei brucei TREU667 infected in mouse assessed as decrease in parasitemia at 50 mg/kg, bid administered via oral gavage on day 21 to 34 post infection measured on day 37 by microscopic method; format: functional, organism-based
[19] = test system: Trypanosoma brucei brucei; assay: Antiparasitic activity against Trypanosoma brucei brucei TREU667 infected in mouse assessed as decrease in parasitemia at 50 mg/kg, bid administered via oral gavage on day 21 to 34 post infection measured on day 38 by microscopic method; format: functional, organism-based
[20] = test system: Trypanosoma brucei brucei; assay: Antiparasitic activity against Trypanosoma brucei brucei TREU667 infected in mouse assessed as decrease in parasitemia at 50 mg/kg, bid administered via oral gavage on day 21 to 34 post infection measured on day 39 by microscopic method; format: functional, organism-based
[21] = test system: Trypanosoma brucei brucei; assay: Antiparasitic activity against Trypanosoma brucei brucei TREU667 infected in mouse assessed as decrease in parasitemia at 50 mg/kg, bid administered via oral gavage on day 21 to 34 post infection measured on day 43 to 45 by microscopic method; format: functional, organism-based
[22] = test system: Trypanosoma brucei brucei; assay: Antiparasitic activity against Trypanosoma brucei brucei TREU667 infected in mouse assessed as decrease in parasitemia at 50 mg/kg, bid administered via oral gavage on day 21 to 34 post infection measured on day 50 to 51 by microscopic method; format: functional, organism-based
[23] = test system: Trypanosoma brucei brucei; assay: Antiparasitic activity against Trypanosoma brucei brucei TREU667 infected in mouse assessed as decrease in parasitemia at 50 mg/kg, bid administered via oral gavage on day 21 to 34 post infection measured on day 52 to 180 by microscopic method; format: functional, organism-based
[24] = test system: Trypanosoma brucei rhodesiense; assay: Antiparasitic activity against Trypanosoma brucei rhodesiense STIB900 assessed as growth inhibition after 48 hrs by Alamar blue assay; format: functional; conditions: STIB900, 48 h
[25] = test system: Trypanosoma brucei brucei; assay: Antiparasitic activity against Trypanosoma brucei brucei BF427 assessed as growth inhibition at 32 times EC50 pretreated for 24 hrs followed by compound washout measured after 10 days by light microscopic method; format: functional
[26] = test system: Trypanosoma brucei brucei; assay: Antiparasitic activity against Trypanosoma brucei brucei BF427 assessed as growth inhibition at 16 times EC50 pretreated for 48 hrs followed by compound washout measured after 10 days by light microscopic method; format: functional
[27] = test system: Trypanosoma brucei brucei; assay: Antiparasitic activity against Trypanosoma brucei brucei BF427 assessed as growth inhibition at 16 times EC50 pretreated for 72 hrs followed by compound washout measured after 10 days by light microscopic method; format: functional
[28] = test system: Trypanosoma brucei brucei; assay: Antiparasitic activity against Trypanosoma brucei brucei BF427 assessed as growth inhibition at 16 times EC50 pretreated for 96 hrs followed by compound washout measured after 10 days by light microscopic method; format: functional

Cytochrome P450 3A4, sequence (P08684 whole entry): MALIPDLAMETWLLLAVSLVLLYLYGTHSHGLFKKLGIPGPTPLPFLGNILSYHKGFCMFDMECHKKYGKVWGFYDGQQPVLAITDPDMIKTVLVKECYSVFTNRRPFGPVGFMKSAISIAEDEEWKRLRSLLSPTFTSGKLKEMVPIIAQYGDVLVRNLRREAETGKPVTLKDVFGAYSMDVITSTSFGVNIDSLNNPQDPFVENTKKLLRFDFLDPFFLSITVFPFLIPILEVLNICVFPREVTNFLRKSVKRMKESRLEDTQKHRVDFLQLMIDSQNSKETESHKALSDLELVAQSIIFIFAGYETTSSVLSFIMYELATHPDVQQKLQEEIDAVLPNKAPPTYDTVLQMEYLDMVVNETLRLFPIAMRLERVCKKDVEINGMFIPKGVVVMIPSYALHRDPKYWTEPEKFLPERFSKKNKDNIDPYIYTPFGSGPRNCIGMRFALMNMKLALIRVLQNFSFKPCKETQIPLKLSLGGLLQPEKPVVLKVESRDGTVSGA

SMILES	EC50 [1] [nM]	IC50 [4] [nM]	t1/2 [5] [h]	t1/2 [6] [h]	BPR [7]	Cmax [8] [nM]	AUC(0-t) at 8 h [9] [µM·h]	CC50 [2] [nM]	CC50 [3] [nM]	Activity [10]	Activity [11]	Activity [12]	Activity [13]	Activity [14]	CC50 [15] [nM]	further results
COc1ccc(N(CCN)C(=O)c2ccc(Cl)cc2Cl)cc1	> 6000	–	–	–	–	–	–	–	–	–	–	–	–	–	56100	–
CC1(C)OB(O)c2cc(NC(=O)c3ccc(F)cc3C(F)(F)F)ccc21	–	–	–	–	–	–	–	–	–	–	Active	Active	Active	Active	–	Activity [16]: Active; Activity [17]: Active; Activity [18]: Active; Activity [19]: Active; Activity [20]: Active; Activity [21]: Active; Activity [22]: Active; Activity [23]: Active
Cl.NCCN(C(=O)c1ccc(Cl)cc1Cl)c1ccc(F)cc1	–	74	–	> 1	–	–	–	30000	40000	–	–	–	–	–	–	–

Further lines, with some results ahead:

EC50 [1] [nM]	IC50 [4] [nM]	t1/2 [5] [h]	t1/2 [6] [h]	BPR [7]	Cmax [8] [nM]	AUC(0-t) at 8 h [9] [µM·h]	SMILES	CC50 [2] [nM]	CC50 [3] [nM]	Activity [10]	Activity [11]	Activity [12]	Activity [13]	Activity [14]	CC50 [15] [nM]	further results
7	10	> 1	> 1	0.38	4390	26	Cl.NCCN(C(=O)c1ccc(F)cc1C(F)(F)F)c1ccc(OCc2ccc(Cl)cc2)cc1	3670	7530	67 - 80%	Active	Active	Active	inactive	–	–
1050	–	–	–	–	–	–	NCCN(C(=O)c1ccc(Cl)cc1Cl)c1ccc(C(F)(F)F)cc1	–	–	–	–	–	–	–	13200	–
31	179	> 1	0.583	0.42	530	3.42	Cl.NCCN(C(=O)c1ccc(Cl)cc1Cl)c1ccc(OCc2ccc(Cl)cc2)cc1	2000	2000	67 - 80%	–	–	–	–	–	EC50 [24]: 5 nM; growth inhibition (GI) [25]: Active; growth inhibition (GI) [26]: Active; growth inhibition (GI) [27]: Active; growth inhibition (GI) [28]: Active
